Test results reported in patent US20090215025A1, “SMALL PEPTIDIC AND PEPTIDO-MIMETIC AFFINITY LIGANDS FOR FACTOR VIII AND FACTOR VIII-LIKE PROTEINS” (TECHNISCHE UNIVERSITAT MUNCHEN, priority 2005, published 2009).

Experiments:
[1] = molecular target: T1, ReFacto® (recombinant form of FVIII) (Homo sapiens, UniProt P00451, DEL763-1656); assay: Binding of 125I-ReFacto to peptide-coated resin; conditions: resin coated with peptide
T1 construct: purchased Wyeth-Ayerst Pharmacia and Upjohn; host or cells: CHO cells
T1 sequence (P00451 with tags, fused parts or gaps DEL763-1656 limits assumed): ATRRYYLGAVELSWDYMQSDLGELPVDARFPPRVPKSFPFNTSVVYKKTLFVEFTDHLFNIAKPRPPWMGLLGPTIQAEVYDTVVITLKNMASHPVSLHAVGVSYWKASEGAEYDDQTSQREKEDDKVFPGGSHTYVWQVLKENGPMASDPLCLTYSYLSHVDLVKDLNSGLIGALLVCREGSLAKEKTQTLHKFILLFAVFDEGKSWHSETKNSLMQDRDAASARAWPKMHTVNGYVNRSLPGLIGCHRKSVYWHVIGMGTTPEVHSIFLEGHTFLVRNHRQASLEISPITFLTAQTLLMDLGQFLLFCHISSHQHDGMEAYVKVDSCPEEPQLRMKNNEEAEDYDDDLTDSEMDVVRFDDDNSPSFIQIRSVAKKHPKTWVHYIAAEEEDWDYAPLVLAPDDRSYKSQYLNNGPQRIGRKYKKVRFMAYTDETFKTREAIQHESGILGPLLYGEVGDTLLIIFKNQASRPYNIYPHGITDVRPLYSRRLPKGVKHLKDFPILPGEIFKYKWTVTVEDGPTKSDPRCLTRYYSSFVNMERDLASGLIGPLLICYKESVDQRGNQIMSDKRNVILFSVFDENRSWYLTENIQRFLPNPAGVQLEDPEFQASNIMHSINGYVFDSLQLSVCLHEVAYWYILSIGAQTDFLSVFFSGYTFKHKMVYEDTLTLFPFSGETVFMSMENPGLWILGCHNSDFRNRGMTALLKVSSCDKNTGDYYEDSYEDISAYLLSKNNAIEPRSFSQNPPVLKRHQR
T1 sequence (P00451 1668-2351 limits assumed): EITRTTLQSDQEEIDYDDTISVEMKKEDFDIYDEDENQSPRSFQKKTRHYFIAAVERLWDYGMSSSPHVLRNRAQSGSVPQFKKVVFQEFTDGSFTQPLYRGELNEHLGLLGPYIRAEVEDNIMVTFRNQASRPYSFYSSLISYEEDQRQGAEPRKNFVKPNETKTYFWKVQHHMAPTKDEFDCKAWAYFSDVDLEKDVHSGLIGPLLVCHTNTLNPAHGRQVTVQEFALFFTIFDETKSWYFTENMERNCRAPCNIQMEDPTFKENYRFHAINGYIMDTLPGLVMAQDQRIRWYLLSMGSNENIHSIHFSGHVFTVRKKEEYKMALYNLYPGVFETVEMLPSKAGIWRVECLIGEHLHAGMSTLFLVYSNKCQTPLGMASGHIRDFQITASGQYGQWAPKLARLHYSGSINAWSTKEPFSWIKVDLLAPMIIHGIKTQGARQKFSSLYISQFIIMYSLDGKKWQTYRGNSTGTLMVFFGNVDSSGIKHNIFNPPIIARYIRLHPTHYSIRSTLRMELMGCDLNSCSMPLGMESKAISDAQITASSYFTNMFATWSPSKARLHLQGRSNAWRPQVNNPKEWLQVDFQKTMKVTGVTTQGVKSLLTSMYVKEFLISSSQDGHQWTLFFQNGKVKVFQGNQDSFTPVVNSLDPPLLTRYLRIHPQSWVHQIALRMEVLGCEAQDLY
Experimental: (§1) The resin with immobilized peptides was washed in the binding buffer (0.01 M Hepes, 0.1 M NaCl, 5 mM CaCl2, 0.01% Tween-80). Subsequently, the resin was diluted in the binding buffer as 1:7 slurry and aliquoted into Eppendorf tubes (40 μl per tube). ^125I-pd-FVIII (100000 cpm in 10 μl) was added to the tubes and the volume of the mixture was adjusted to 100 μl by adding 50 μl of the binding buffer containing 4% BSA to give a 2% final concentration of BSA. After 2 hours of incubation at room temperature on a rotator, the samples were washed 4 times in the binding. […] After four washes the tubes with pellet without supernatant were counted for radioactivity. The resin without peptide was processed similarly to account for non-specific pd-FVIII binding to tubes and resin itself, and the radioactivity in this control tube was considered as a background value. Since ^125I-pd-FVIII contains the some fraction damaged during radiolabeling, binding was calculated as a percent of maximal achievable binding, determined in separate experiment with anti-FVIII Mab 8860-coated resin. […]
(§2) Kogenate® and ReFacto® were iodinated in the same manner as described in Example 1 with respect to the pd-FVIII. Protein binding was measured using the same procedures as described in Example 1 above.

[2] = molecular target: T2, Kogenate® (recombinant form of FVIII) (Homo sapiens, UniProt P00451); assay: Binding of 125I-Kogenate to peptide-coated resin; conditions: resin coated with peptide
T2 construct: purchased Bayer; host or cells: baby hamster kidney (BHK) cells
Experimental: as §1, §2

[3] = molecular target: T3, plasma-derived (pd-) human Factor VIII (FVIII) (Homo sapiens, UniProt P00451); assay: Binding of 125I-labeled pd-FVIII to peptides immobilized on Toyopearl AF-Epoxy-650M resin (micro-beads assay); conditions: Table 1
T3 construct: from tissue; host or cells: human blood plasma (FVIII concentrate)
Experimental: Peptides P1 to P25 were immobilized on the Toyopearl AF-Epoxy-650M resin (Tosoh Biosep) as described by Jungbauer et al. For immobilization, 2.5 mg of each peptide was dissolved in 0.25 mL of the immobilization buffer (0.2 M sodium bicarbonate, pH 10.3), and 0.036 g of the dry resin powder (corresponding to 0.125 mL of swollen resin) was added, followed by incubation of the mixture with gentle rotation for 48 hours. Upon incubation for 48 hours the resin was washed once with immobilization buffer, once with 1 M NaCl and then 3 times with binding buffer, and binding of ^125I-labeled pd-FVIII to the peptide-coated and control resin was tested. The coupling density of each peptide in each of the reported experiments was as mentioned in Table 1. The control 0.25 mL portion of the resin was similarly treated in parallel experiment in the absence of peptide and was subsequently used as a control (designated as Background) in ^125I-pd-FVIII binding experiments. ^125I-pd-FVIII Bound/Background ratios were calculated as the amount of ^125I-pd-FVIII, bound to an immobilized peptide, divided by that bound to uncoated control resin, prepared as described above. This ratio represents a Signal/Noise ratio for the micro-beads assay, since ^125I-pd-FVIII bound to peptide represents the signal value and ^125I-pd-FVIII bound to peptide-uncoated resin represents the background (noise) value.
Plasma-derived (pd-) human Factor VIII (FVIII) was purified from concentrate by immunoaffinity chromatography on an anti-FVIII monoclonal antibody column followed by subsequent concentration of pd-FVIII by ion-exchange chromatography using Resource Q HR5/5 column. To separate FVIII from vWf, concentrate was incubated in 0.35 M NaCl, 0.04 M CaCl2, prior to affinity purification.
Trace amounts of vWf, which are potentially present in pd-FVIII preparation, were removed by passing pd-FVIII preparation through the column with anti-vWf high affinity monoclonal antibody, immobilized at the density 1.4 mg per mL of resin.
Ten μg of purified pd-FVIII were iodinated using lactoperoxidase beads and 0.5 mCi of Na^125I.
The resin with immobilized peptides was washed in the binding buffer (0.01 M Hepes, 0.1 M NaCl, 5 mM CaCl2, 0.01% Tween-80). Subsequently, the resin was diluted in the binding buffer as 1:7 slurry and aliquoted into Eppendorf tubes (40 μl per tube). ^125I-pd-FVIII (100000 cpm in 10 μl) was added to the tubes and the volume of the mixture was adjusted to 100 μl by adding 50 μl of the binding buffer containing 4% BSA to give a 2% final concentration of BSA. After 2 hours of incubation at room temperature on a rotator, the samples were washed 4 times in the binding. After each wash the tubes were centrifuged at 5000 rpm for 1 min in an Eppendorf microcentrifuge, supernatant was discarded, and the resin was re-suspended in the washing buffer, followed by centrifugation under the same conditions. After four washes the tubes with pellet without supernatant were counted for radioactivity. The resin without peptide was processed similarly to account for non-specific pd-FVIII binding to tubes and resin itself, and the radioactivity in this control tube was considered as a background value. Since ^125I-pd-FVIII contains the some fraction damaged during radiolabeling, binding was calculated as a percent of maximal achievable binding, determined in separate experiment with anti-FVIII Mab 8860-coated resin.
All the measurements were performed in duplicates. Each experiment was performed using two independently prepared immobilized peptide samples. The data presented in each figure are the mean values of the four determinations: duplicate determination in the two assays performed with beads on which peptides were independently immobilized on the different days. […]

T3 sequence (P00451 20-1667 limits assumed, one chain of several): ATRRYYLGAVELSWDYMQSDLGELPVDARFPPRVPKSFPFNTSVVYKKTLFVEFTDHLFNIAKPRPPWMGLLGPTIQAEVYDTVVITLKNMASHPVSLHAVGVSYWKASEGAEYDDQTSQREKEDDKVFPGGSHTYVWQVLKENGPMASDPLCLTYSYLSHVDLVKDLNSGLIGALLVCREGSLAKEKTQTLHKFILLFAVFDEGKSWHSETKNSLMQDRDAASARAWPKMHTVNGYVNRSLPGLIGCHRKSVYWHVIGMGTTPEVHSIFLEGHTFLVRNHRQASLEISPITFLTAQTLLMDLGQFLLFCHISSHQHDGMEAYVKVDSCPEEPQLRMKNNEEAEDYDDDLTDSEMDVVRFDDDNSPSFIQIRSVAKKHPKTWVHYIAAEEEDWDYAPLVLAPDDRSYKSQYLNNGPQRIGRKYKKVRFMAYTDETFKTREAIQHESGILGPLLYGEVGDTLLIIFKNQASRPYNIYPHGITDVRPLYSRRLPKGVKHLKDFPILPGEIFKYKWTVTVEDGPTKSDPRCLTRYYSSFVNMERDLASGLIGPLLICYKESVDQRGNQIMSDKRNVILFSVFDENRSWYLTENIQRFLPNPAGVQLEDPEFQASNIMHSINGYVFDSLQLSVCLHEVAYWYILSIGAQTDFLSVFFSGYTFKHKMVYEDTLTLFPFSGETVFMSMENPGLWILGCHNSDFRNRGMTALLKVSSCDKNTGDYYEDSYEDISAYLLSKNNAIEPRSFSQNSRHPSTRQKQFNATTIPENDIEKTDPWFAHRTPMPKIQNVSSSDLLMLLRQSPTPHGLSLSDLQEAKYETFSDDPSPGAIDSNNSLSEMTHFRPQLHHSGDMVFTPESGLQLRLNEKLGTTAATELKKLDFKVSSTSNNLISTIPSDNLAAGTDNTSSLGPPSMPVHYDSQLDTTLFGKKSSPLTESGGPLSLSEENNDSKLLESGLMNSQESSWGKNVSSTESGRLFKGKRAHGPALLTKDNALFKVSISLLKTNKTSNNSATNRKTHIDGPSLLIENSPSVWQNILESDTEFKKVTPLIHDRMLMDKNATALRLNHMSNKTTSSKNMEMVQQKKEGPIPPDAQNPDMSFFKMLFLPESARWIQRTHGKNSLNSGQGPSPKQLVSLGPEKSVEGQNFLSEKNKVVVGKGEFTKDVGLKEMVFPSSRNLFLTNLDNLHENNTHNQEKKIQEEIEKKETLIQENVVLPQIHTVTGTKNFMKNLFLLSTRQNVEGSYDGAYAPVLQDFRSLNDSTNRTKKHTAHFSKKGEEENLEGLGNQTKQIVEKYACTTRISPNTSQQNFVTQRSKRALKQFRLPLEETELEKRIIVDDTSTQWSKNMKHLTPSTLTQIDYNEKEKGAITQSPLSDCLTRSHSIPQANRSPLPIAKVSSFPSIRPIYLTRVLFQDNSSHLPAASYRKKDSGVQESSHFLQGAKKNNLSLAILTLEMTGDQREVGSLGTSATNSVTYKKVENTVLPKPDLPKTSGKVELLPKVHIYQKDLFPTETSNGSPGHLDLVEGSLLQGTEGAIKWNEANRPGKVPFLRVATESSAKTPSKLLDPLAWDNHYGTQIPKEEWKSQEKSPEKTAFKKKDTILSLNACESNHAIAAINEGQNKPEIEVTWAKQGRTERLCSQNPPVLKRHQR
T2 sequence (P00451 20-1667 limits assumed, one chain of several): as above

- 125I-ReFacto binding (% of total) [1]: 54.9 ± 6.3 % of total
- 125I-Kogenated FS binding (% of total) [2]: 49.6 ± 1.7 % of total
- Binding, rel. to control ([3]; 125I-pd-FVIII Bound/Background ratio versus uncoated control resin): 39.3 ± 0.3
- % Binding pdFVIII ([3]; immobilized on Toyopearl AF-Epoxy-650M, percent of maximal achievable binding (anti-FVIII Mab 8860-coated resin), mean of four determinations): 75.4 ± 0.6%
Substance: IAA-Glu-Tyr-Cys-OH [Compound P15]
